According to PubChem BioAssay AID2060910 (Molecular Pharmacology Branch, DTP, NCI, 2025):

Test system: 242566-281-R-J2-PDC complex spheroid viability
Test: Anticancer human tumor 242566-281-R-J2-PDC patient-derived pancreatic carcinoma cell line growth inhibition [RAS]
Settings: for IC50: curve of first compound; for viability, T/C: stronger effect = lower value
How it was run: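 Agents were tested in combination matrices in half-log decrements from a top concentration at or near clinical Cmax (10 microM if undetermined). Targets were multi-cell spheroids of tumour lines plus HUVEC and MSC stromal cells.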

[1] = second compound 0.00316 µM, first compound 0.0316 µM
[2] = second compound 0.00316 µM, first compound 0.1 µM
[3] = second compound 0.00316 µM, first compound 0.316 µM
[4] = second compound 0.00316 µM, first compound 1 µM
[5] = second compound 0.00316 µM, first compound 3.16 µM
[6] = second compound 0.00316 µM, first compound 10 µM
[7] = second compound 0.01 µM, first compound 0.0316 µM
[8] = second compound 0.01 µM, first compound 0.1 µM
[9] = second compound 0.01 µM, first compound 0.316 µM
[10] = second compound 0.01 µM, first compound 1 µM
[11] = second compound 0.01 µM, first compound 3.16 µM
[12] = second compound 0.01 µM, first compound 10 µM
[13] = second compound 0.0316 µM, first compound 0.0316 µM
[14] = second compound 0.0316 µM, first compound 0.1 µM
[15] = second compound 0.0316 µM, first compound 0.316 µM
[16] = second compound 0.0316 µM, first compound 1 µM
[17] = second compound 0.0316 µM, first compound 3.16 µM
[18] = second compound 0.0316 µM, first compound 10 µM
[19] = second compound 0.1 µM, first compound 0.0316 µM
[20] = second compound 0.1 µM, first compound 0.1 µM
[21] = second compound 0.1 µM, first compound 0.316 µM
[22] = second compound 0.1 µM, first compound 1 µM
[23] = second compound 0.1 µM, first compound 3.16 µM
[24] = second compound 0.1 µM, first compound 10 µM
[25] = second compound 0.316 µM, first compound 0.0316 µM
[26] = second compound 0.316 µM, first compound 0.1 µM
[27] = second compound 0.316 µM, first compound 0.316 µM
[28] = second compound 0.316 µM, first compound 1 µM
[29] = second compound 0.316 µM, first compound 3.16 µM
[30] = second compound 0.316 µM, first compound 10 µM
[31] = second compound 1 µM, first compound 0.0316 µM
[32] = second compound 1 µM, first compound 0.1 µM
[33] = second compound 1 µM, first compound 0.316 µM
[34] = second compound 1 µM, first compound 1 µM
[35] = second compound 1 µM, first compound 3.16 µM
[36] = second compound 1 µM, first compound 10 µM
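Also: spheroids exposed to compound for 7 days before readout.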
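For viability, T/C in this document: 100% = DMSO vehicle control wells.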

In the case of CCC(CC)c1cc(NC2CCC(N)C2)n2nccc2n1 (stereo unspecified) + C=CC(=O)N1CCN(c2nc(OCC3CCCN3C)nc3c(F)c(-c4nc(N)cc(C)c4C(F)(F)F)c(Cl)cc23)C(C)C1, the IC50 (second compound 0.00316 µM) is reported as 4590 nM, the IC50 (second compound 0.01 µM) is reported as 4420 nM and the IC50 (second compound 0.0316 µM) is reported as 3740 nM. It also gave an IC50 (second compound 0.1 µM) of 4540 nM, an IC50 (second compound 0.316 µM) of 3760 nM and an IC50 (second compound 1 µM) of 4550 nM. It also gave a viability, T/C [1] of 108%, a viability, T/C [2] of 141% and a viability, T/C [3] of 94.3%. For the same compound, the viability, T/C [4] was 109%, the viability, T/C [5] was 72.6% and the viability, T/C [6] was 1.71%. The viability, T/C [7] was 121%, the viability, T/C [8] was 146% and the viability, T/C [9] was 108%. It also gave a viability, T/C [10] of 100%, a viability, T/C [11] of 72.8% and a viability, T/C [12] of 1.81%. For the same compound, the viability, T/C [13] was 129%, the viability, T/C [14] was 123% and the viability, T/C [15] was 97.1%. It also gave a viability, T/C [16] of 98%, a viability, T/C [17] of 58.3% and a viability, T/C [18] of 1.98%. For the same compound, the viability, T/C [19] was 137%, the viability, T/C [20] was 129% and the viability, T/C [21] was 106%. For the same compound, the viability, T/C [22] was 96.5%, the viability, T/C [23] was 82.5% and the viability, T/C [24] was 1.56%. It also gave a viability, T/C [25] of 149%, a viability, T/C [26] of 124% and a viability, T/C [27] of 99.3%. The viability, T/C [28] was 102%, the viability, T/C [29] was 62.8% and the viability, T/C [30] was 1.81%. The viability, T/C [31] was 125%, the viability, T/C [32] was 156% and the viability, T/C [33] was 82.7%. For the same compound, the viability, T/C [34] was 115%, the viability, T/C [35] was 75% and the viability, T/C [36] was 1.22%.

In the case of Nc1ccn(C2OC(CO)C(O)C2(F)F)c(=O)n1 (stereo unspecified) + C#Cc1c(F)ccc2cc(O)cc(-c3ncc4c(N5CC6CCC(C5)N6)nc(OCC56CCCN5CC(F)C6)nc4c3F)c12, the IC50 (second compound 0.0316 µM) is reported as 86 nM, the IC50 (second compound 0.1 µM) is reported as 201 nM and the IC50 (second compound 0.316 µM) is reported as 180 nM. It also gave an IC50 (second compound 1 µM) of 10.2 nM, an IC50 (second compound 3.16 µM) of 3.16 nM and an IC50 (second compound 10 µM) of under 3.16 nM. For the same compound, the viability, T/C (second compound 0.0316 µM, first compound 0.00316 µM) was 84.9%, the viability, T/C (second compound 0.0316 µM, first compound 0.01 µM) was 105% and the viability, T/C [13] was 71.6%. For the same compound, the viability, T/C [14] was 48.5%, the viability, T/C [15] was 41.8% and the viability, T/C [16] was 30.9%. It also gave a viability, T/C (second compound 0.1 µM, first compound 0.00316 µM) of 75.7%, a viability, T/C (second compound 0.1 µM, first compound 0.01 µM) of 88.7% and a viability, T/C [19] of 70.6%. It also gave a viability, T/C [20] of 54.7%, a viability, T/C [21] of 51.6% and a viability, T/C [22] of 39.8%. For the same compound, the viability, T/C (second compound 0.316 µM, first compound 0.00316 µM) was 64%, the viability, T/C (second compound 0.316 µM, first compound 0.01 µM) was 71.1% and the viability, T/C [25] was 49.4%. The viability, T/C [26] was 52.1%, the viability, T/C [27] was 49.8% and the viability, T/C [28] was 44%. It also gave a viability, T/C (second compound 1 µM, first compound 0.00316 µM) of 56.2%, a viability, T/C (second compound 1 µM, first compound 0.01 µM) of 55.5% and a viability, T/C [31] of 40.8%. It also gave a viability, T/C [32] of 41.4%, a viability, T/C [33] of 45.7% and a viability, T/C [34] of 41.9%. For the same compound, the viability, T/C (second compound 3.16 µM, first compound 0.00316 µM) was 38.6%, the viability, T/C (second compound 3.16 µM, first compound 0.01 µM) was 55.4% and the viability, T/C (second compound 3.16 µM, first compound 0.0316 µM) was 50.8%. For the same compound, the viability, T/C (second compound 3.16 µM, first compound 0.1 µM) was 36.5%, the viability, T/C (second compound 3.16 µM, first compound 0.316 µM) was 39% and the viability, T/C (second compound 3.16 µM, first compound 1 µM) was 36.2%. For the same compound, the viability, T/C (second compound 10 µM, first compound 0.00316 µM) was 42.3%, the viability, T/C (second compound 10 µM, first compound 0.01 µM) was 53.9% and the viability, T/C (second compound 10 µM, first compound 0.0316 µM) was 48.9%. For the same compound, the viability, T/C (second compound 10 µM, first compound 0.1 µM) was 38.3%, the viability, T/C (second compound 10 µM, first compound 0.316 µM) was 34.1% and the viability, T/C (second compound 10 µM, first compound 1 µM) was 30.7%.

In the case of CC(=O)OC12COC1CC(O)C1(C)C(=O)C(O)C3=C(C)C(OC(=O)C(O)C(NC(=O)OC(C)(C)C)c4ccccc4)CC(O)(C(OC(=O)c4ccccc4)C21)C3(C)C (stereo unspecified) + C=CC(=O)N1CCN(c2nc(OCC3CCCN3C)nc3c(F)c(-c4nc(N)cc(C)c4C(F)(F)F)c(Cl)cc23)C(C)C1, the IC50 (second compound 0.00316 µM) is reported as under 31.6 nM, the IC50 (second compound 0.01 µM) is reported as 237 nM and the IC50 (second compound 0.0316 µM) is reported as 122 nM. It also gave an IC50 (second compound 0.1 µM) of over 10000 nM, an IC50 (second compound 0.316 µM) of over 10000 nM and an IC50 (second compound 1 µM) of under 31.6 nM. For the same compound, the viability, T/C [1] was 52.6%, the viability, T/C [2] was 53.8% and the viability, T/C [3] was 50.5%. For the same compound, the viability, T/C [4] was 35.5%, the viability, T/C [5] was 54.5% and the viability, T/C [6] was 69.3%. It also gave a viability, T/C [7] of 71.5%, a viability, T/C [8] of 53% and a viability, T/C [9] of 42.2%. It also gave a viability, T/C [10] of 41.8%, a viability, T/C [11] of 45.2% and a viability, T/C [12] of 66.8%. For the same compound, the viability, T/C [13] was 80.4%, the viability, T/C [14] was 51.9% and the viability, T/C [15] was 39.3%. It also gave a viability, T/C [16] of 35.6%, a viability, T/C [17] of 48.5% and a viability, T/C [18] of 66.5%. For the same compound, the viability, T/C [19] was 61.1%, the viability, T/C [20] was 51.4% and the viability, T/C [21] was 47.6%. It also gave a viability, T/C [22] of 37.9%, a viability, T/C [23] of 46.5% and a viability, T/C [24] of 68.2%. The viability, T/C [25] was 64.9%, the viability, T/C [26] was 52.1% and the viability, T/C [27] was 37%. It also gave a viability, T/C [28] of 49.3%, a viability, T/C [29] of 55.7% and a viability, T/C [30] of 71.4%. It also gave a viability, T/C [31] of 52.7%, a viability, T/C [32] of 51.1% and a viability, T/C [33] of 44.8%. The viability, T/C [34] was 42.8%, the viability, T/C [35] was 50.9% and the viability, T/C [36] was 65.7%.
